Reference: the NIST ThermoML archive (doi:10.1021/je060380p)
± gives the expanded uncertainty stated by the source.

Details: Crystal; visual observation

Normal melting temperature: 216 ± 1 °C
Structure (SMILES): c1ccc2cc3ccccc3cc2c1 [anthracene]
